“Also recorded” adds a separate entry of the source.
Target: T1, GST-SIRT6 (Homo sapiens, UniProt Q8N6T7)
T1 construct: made in house; host or cells: E. coli BL21(DE3)-pRARE
Test: In vitro SIRT6 deacetylation of core histones, western blot of H3K9Ac
Assay type: biochemical
Conditions: 100 µM
Protocol: Western blot analysis was carried out as previously described, with slight modifications. […] The reaction was stopped with Laemmli (sample buffer) and separated by SDS-PAGE using 10–20% gradient gels and transferred onto polyvinylidene difluoride (PVDF) membranes. H3K9 acetylation was detected with rabbit anti-acetyl H3K9 antibody followed by anti-rabbit HRP-conjugated secondary antibody. Membranes were stripped and re-probed with rabbit anti-histone H3 antibody. Chemiluminescent signal detection and image acquisition were carried out using ECL prime western blotting detection reagents.
3 μg/well of a purified recombinant GST‐SIRT6 protein, 1.25 μg purified whole chicken core histones with 500 μM NAD+ in 25 mM Tris‐HCl, pH 8.0. Analysis were repeated three times and one representative cropped blot is shown (A). Uncropped blots probed with H3K9Ac (B), H3 (C). […]

T1 sequence (Q8N6T7 whole entry): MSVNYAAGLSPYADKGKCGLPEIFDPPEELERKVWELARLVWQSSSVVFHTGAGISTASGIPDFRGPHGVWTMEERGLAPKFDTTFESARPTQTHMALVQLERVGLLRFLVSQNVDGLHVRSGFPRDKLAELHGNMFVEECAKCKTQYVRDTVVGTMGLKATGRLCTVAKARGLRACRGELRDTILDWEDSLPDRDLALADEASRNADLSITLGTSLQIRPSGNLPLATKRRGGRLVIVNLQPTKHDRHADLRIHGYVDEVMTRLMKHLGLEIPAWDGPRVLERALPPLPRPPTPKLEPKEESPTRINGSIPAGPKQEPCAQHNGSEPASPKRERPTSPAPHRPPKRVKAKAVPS

Increase of deacetylation activity (H3K9Ac on core histones) | SMILES
~2.5 fold | Oc1cc(O)c2cc(O)c(-c3ccc(O)c(O)c3)[o+]c2c1 [Compound 17, Cyanidin]
~2.5 fold | Oc1cc(O)c2cc(O)c(-c3cc(O)c(O)c(O)c3)[o+]c2c1 [Compound 18, Delphinidin]

System: Caco-2 cells
Test: Light microscopy of Caco-2 cells after treatment
Assay type: cell-based, human
Conditions: 200 µM
Protocol: (§1) After the treatment, conditions of the cells were evaluated under a light microscope (Fig. 3A). […] Full-length blots are presented in Supplementary Fig. S4.
(§2) (B) Immunoblotting analysis of SIRT6 protein. SIRT6 protein levels (MW: 39 kDa) were normalized relative to α-tubulin (MW: 50 kDa) and quantification is represented as fold change respect to control. Values are expressed as mean ± SEM of four independent experiment (*p values < 0.05; one way-ANOVA). SIRT6 expression were determined by immunoblotting (B).
(§3) Caco-2 cells (passage 30–40) were cultured in DMEM with 10% FBS, 1% nonessential amino acids, 2 mM L-glutamine, 100 units/ml of penicillin, and 100 µg/ml of streptomycin at +37 °C. Cells were cultured 14 days before the treatments. For the immunoblotting, cells were seeded on 24-well plates (1 × 10^5 cells/well).

Precipitation in cell culture medium | SMILES
precipitated out of solution | Oc1cc(O)c2cc(O)c(-c3ccc(O)c(O)c3)[o+]c2c1 [Compound 17, Cyanidin]

System: SIRT6 protein expression in Caco-2 cells
Test: Immunoblotting of SIRT6 protein expression in Caco-2 cells
Assay type: cell-based, human
Conditions: Caco-2, 50–100 µM, 24 h, relative to control
Protocol: as §1, §2, §3
(§4) After treatment, medium was discarded and cells were washed twice with ice-cold PBS. RIPA buffer was added to the cells and incubated for 30 min. Cell suspensions were collected and centrifuged (13,000 rpm, 20 min +4 °C). Supernatant containing the proteins were aliquoted and stored at −80 °C. Sample protein concentrations were measured with Bradford Assay (Bio-Rad DC^TM Protein Assay).
Immunoblotting was performed according to standard protocols from four independent experiments. Briefly, protein samples (18 µg/sample) were separated by SDS-PAGE using 10–20% gradient gels and transferred onto PVDF membranes. Membranes were blocked in 3% non-fat dry milk and further incubated with primary rabbit anti- FoxO3α (1:2000), anti-GLUT1 (1:1000), anti-H3, anti-SIRT6 (1:2000), anti-Twist (1:2000) anti-α-tubulin (1:8000) antibodies overnight at +4 °C. HRP-conjugated secondary antibodies (goat anti-rabbit, goat anti-mouse) were incubated for 1 hour at room temperature and proteins were detected using ELC prime western blotting system. Densitometric analysis of protein bands was carried out using ImageJ 1.32 software and the data were normalized by α-tubulin (loading control).

SMILES | SIRT6 expression up-regulation
Oc1cc(O)c2cc(O)c(-c3ccc(O)c(O)c3)[o+]c2c1 [Compound 17, Cyanidin] | 3.5 fold

Same assay, conditions: Caco-2 cells, 24 h

SMILES | SIRT6 expression, in words
Oc1cc(O)c2cc(O)c(-c3ccc(O)c(O)c3)[o+]c2c1 [Compound 17, Cyanidin] | effective in a dose-dependent manner

Same assay, conditions: Caco-2 cells, 24 h; listed as Cyanidin

SMILES | SIRT6 expression, in words
Oc1cc(O)c2cc(O)c(-c3ccc(O)c(O)c3)[o+]c2c1 [Compound 17, Cyanidin] | significantly increased SIRT6 expression

System: GLUT1 protein expression in Caco-2 cells
Test: Immunoblotting of GLUT1 protein expression in Caco-2 cells
Assay type: cell-based, human
Conditions: Caco-2, 24 h, 100 µM
Protocol: as §1
(§5) FoxO3α, Twist1 and GLUT1 expression were quantified and normalised with α-tubulin or H3. Data represent the mean ± SEM of three independent experiments,*p < 0.05, **p < 0.01 and ***p < 0.001 between the indicated groups.
as §3, §4
(§6) Immunoblotting was performed according to standard protocols from four independent experiments. […] HRP-conjugated secondary antibodies (goat anti-rabbit, goat anti-mouse) were incubated for 1 hour at room temperature and proteins were detected using ELC prime western blotting system. […]

SMILES | GLUT1 expression, in words
Oc1cc(O)c2cc(O)c(-c3ccc(O)c(O)c3)[o+]c2c1 [Compound 17, Cyanidin] | downregulated

Target: T2, GST-tagged SIRT6 (Homo sapiens, UniProt Q8N6T7)
T2 construct: made in house; host or cells: E. coli BL21(DE3)-pRARE
T2 sequence (Q8N6T7 whole entry): as above
Test: HPLC-based SIRT6 deacetylation assay with H3K9Ac peptide;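 further: recombinant SIRT6 incubated 30 min at 37 °C with 500 µM NAD+ and H3K9Ac peptide, deacetylated H3K9 quantified by reversed-phase HPLC-MRM peak area versus DMSO control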
Assay type: biochemical
Conditions: not given

SMILES | SIRT6 activation, in words | SIRT6 inhibition, in words | inhibition at 1000 µM
Oc1cc(O)c2c(c1)O[C@@H](c1cc(O)c(O)c(O)c1)[C@H](O)C2 [Compound 3, (−)-Gallocatechin] | – | weak inhibitor | –
NC(=O)c1cccnc1 [Compound 21, Nicotinamide, reference compound] | – | – | 58 ± 1.3%
O=c1cc(-c2ccc(O)c(O)c2)oc2cc(O)cc(O)c12 [Compound 13, Luteolin] | – | weak inhibitor | –
O=c1c(O)c(-c2ccc(O)c(O)c2)oc2cc(O)cc(O)c12 [Compound 15, Quercetin] | – | inhibitors as well as activators depending on the concentration | –
O=C1C[C@@H](c2ccc(O)cc2)Oc2cc(O)cc(O)c21 [Compound 10, Naringenin] | – | did not improve the inhibitory activity towards SIRT6 compared to compound 1 | –
O=C1C[C@@H](c2ccc(O)c(O)c2)Oc2cc(O)cc(O)c21 [Compound 11, Eriodictoyl] | – | did not improve the inhibitory activity towards SIRT6 compared to compound 1 | –
O=c1c(O)c(-c2ccc(O)cc2)oc2cc(O)cc(O)c12 [Compound 14, Kaempferol] | – | inhibitors as well as activators depending on the concentration | –
O=C(O[C@@H]1Cc2c(O)cc(O)cc2O[C@@H]1c1cc(O)c(O)c(O)c1)c1cc(O)c(O)c(O)c1 [Compound 9, (−)-Epigallocatechin gallate] | – | moderate inhibition | –
Oc1cc(O)c2cc(O)c(-c3cc(O)c(O)c(O)c3)[o+]c2c1 [Compound 18, Delphinidin] | increase in deacetylase activity; also recorded: weaker activity against SIRT6 than compound 17 | – | –

More lines, main results first:

SIRT6 activation, in words | SMILES | SIRT6 inhibition, in words | inhibition at 1000 µM
increased slightly SIRT6 activation | COc1cc(CCC(=O)O)ccc1O [Compound 23, 3-(4-Hydroxy-3-methoxyphenyl)propionic acid] | – | –
increase in deacetylase activity | Oc1cc(O)c2cc(O)c(-c3ccc(O)c(O)c3)[o+]c2c1 [Compound 17, Cyanidin] | – | –
able to activate deacetylation of SIRT6 | COc1ccc(-c2coc3cc(O)cc(O)c3c2=O)cc1 [Compound 20, Biochanin A] | weak SIRT6 inhibitors | –
inactive | O=c1cc(-c2ccc(O)cc2)oc2cc(O)cc(O)c12 [Compound 12, Apigenin] | – | –

Same assay, conditions: 10 µM compound, mean ± SD, n=3

SMILES | inhibition at 10 µM | Inhibition % 10 µM
Oc1cc(O)c2c(c1)O[C@@H](c1cc(O)c(O)c(O)c1)[C@H](O)C2 [Compound 3, (−)-Gallocatechin] | 17 ± 0.8% | –
O=c1c(O)c(-c2ccc(O)c(O)c2)oc2cc(O)cc(O)c12 [Compound 15, Quercetin] | 27 ± 0.4% | –
O=C1C[C@@H](c2ccc(O)cc2)Oc2cc(O)cc(O)c21 [Compound 10, Naringenin] | 8.3 ± 1.1% | –
O=C1C[C@@H](c2ccc(O)c(O)c2)Oc2cc(O)cc(O)c21 [Compound 11, Eriodictoyl] | – | 19 ± 2.2%
O=C(O[C@@H]1Cc2c(O)cc(O)cc2O[C@@H]1c1cc(O)c(O)c(O)c1)c1cc(O)c(O)c(O)c1 [Compound 9, (−)-Epigallocatechin gallate] | 10 ± 1.4% | –

Continued, values first:

inhibition at 10 µM | Inhibition % 10 µM | SMILES
24 ± 1.8% | – | O=c1cc(-c2ccc(O)c(O)c2)oc2cc(O)cc(O)c12 [Compound 13, Luteolin]
– | 13 ± 0.5% | COc1ccc(-c2coc3cc(O)cc(O)c3c2=O)cc1 [Compound 20, Biochanin A]
40 ± 0.8% | – | O=c1c(O)c(-c2ccc(O)cc2)oc2cc(O)cc(O)c12 [Compound 14, Kaempferol]

Same assay, conditions: 100 µM compound, 40 µM H3K9Ac, mean ± SD, n=3; fold per Fig. 2C legend

SMILES | Activation 100 µM
Oc1cc(O)c2c(c1)O[C@@H](c1cc(O)c(O)c(O)c1)[C@H](O)C2 [Compound 3, (−)-Gallocatechin] | 0.2 ± 0.01 fold
O=c1c(O)c(-c2ccc(O)c(O)c2)oc2cc(O)cc(O)c12 [Compound 15, Quercetin] | 1.5 ± 0.1 fold
O=C1C[C@@H](c2ccc(O)cc2)Oc2cc(O)cc(O)c21 [Compound 10, Naringenin] | 1.1 ± 0.05 fold
O=C1C[C@@H](c2ccc(O)c(O)c2)Oc2cc(O)cc(O)c21 [Compound 11, Eriodictoyl] | 1.1 fold
O=C(O[C@@H]1Cc2c(O)cc(O)cc2O[C@@H]1c1cc(O)c(O)c(O)c1)c1cc(O)c(O)c(O)c1 [Compound 9, (−)-Epigallocatechin gallate] | 0.8 ± 0.04 fold

Now from value to molecule:

Activation 100 µM | SMILES
1.8 ± 0.05 fold | COc1cc(CCC(=O)O)ccc1O [Compound 23, 3-(4-Hydroxy-3-methoxyphenyl)propionic acid]
2.6 ± 0.1 fold | Oc1cc(O)c2cc(O)c(-c3ccc(O)c(O)c3)[o+]c2c1 [Compound 17, Cyanidin]
1.2 ± 0.04 fold | O=c1cc(-c2ccc(O)c(O)c2)oc2cc(O)cc(O)c12 [Compound 13, Luteolin]
1.3 ± 0.02 fold | COc1ccc(-c2coc3cc(O)cc(O)c3c2=O)cc1 [Compound 20, Biochanin A]
2.2 ± 0.1 fold | O=c1c(O)c(-c2ccc(O)cc2)oc2cc(O)cc(O)c12 [Compound 14, Kaempferol]
0.9 ± 0.01 fold | O=c1cc(-c2ccc(O)cc2)oc2cc(O)cc(O)c12 [Compound 12, Apigenin]
2.2 ± 0.1 fold | Oc1cc(O)c2cc(O)c(-c3cc(O)c(O)c(O)c3)[o+]c2c1 [Compound 18, Delphinidin]

Same assay, conditions: 100 µM compound, mean ± SD, n=3

SMILES | inhibition at 100 µM | Inhibition % 100 µM
Oc1cc(O)c2c(c1)O[C@@H](c1cc(O)c(O)c(O)c1)[C@H](O)C2 [Compound 3, (−)-Gallocatechin] | 23 ± 1% | –
O=c1c(O)c(-c2ccc(O)c(O)c2)oc2cc(O)cc(O)c12 [Compound 15, Quercetin] | 40 ± 3% | –
O=C1C[C@@H](c2ccc(O)cc2)Oc2cc(O)cc(O)c21 [Compound 10, Naringenin] | 23 ± 1.5% | –
O=C1C[C@@H](c2ccc(O)c(O)c2)Oc2cc(O)cc(O)c21 [Compound 11, Eriodictoyl] | – | 27 ± 1.5%
O=C(O[C@@H]1Cc2c(O)cc(O)cc2O[C@@H]1c1cc(O)c(O)c(O)c1)c1cc(O)c(O)c(O)c1 [Compound 9, (−)-Epigallocatechin gallate] | 42 ± 1.9% | –

Second part, the molecule after the results:

inhibition at 100 µM | Inhibition % 100 µM | SMILES
-12 ± 1.1% | – | COc1cc(CCC(=O)O)ccc1O [Compound 23, 3-(4-Hydroxy-3-methoxyphenyl)propionic acid]
0% | – | Oc1cc(O)c2cc(O)c(-c3ccc(O)c(O)c3)[o+]c2c1 [Compound 17, Cyanidin]
29 ± 0.3% | – | O=c1cc(-c2ccc(O)c(O)c2)oc2cc(O)cc(O)c12 [Compound 13, Luteolin]
– | 24 ± 0.9% | COc1ccc(-c2coc3cc(O)cc(O)c3c2=O)cc1 [Compound 20, Biochanin A]
24 ± 1.7% | – | O=c1c(O)c(-c2ccc(O)cc2)oc2cc(O)cc(O)c12 [Compound 14, Kaempferol]
1 ± 0.6% | – | O=c1cc(-c2ccc(O)cc2)oc2cc(O)cc(O)c12 [Compound 12, Apigenin]
0% | – | Oc1cc(O)c2cc(O)c(-c3cc(O)c(O)c(O)c3)[o+]c2c1 [Compound 18, Delphinidin]

Same assay, conditions: at saturating concentrations of compound

Maximal activation (fold) | SMILES
3.0 fold | O=c1c(O)c(-c2ccc(O)cc2)oc2cc(O)cc(O)c12 [Compound 14, Kaempferol]

System: Twist1 protein expression in Caco-2 cells
Test: Immunoblotting of Twist1 protein expression in Caco-2 cells
Assay type: cell-based, human
Conditions: Caco-2, 24 h, 100 µM
Protocol: as §1, §5, §3, §4, §6

SMILES | Twist1 expression, in words
Oc1cc(O)c2cc(O)c(-c3ccc(O)c(O)c3)[o+]c2c1 [Compound 17, Cyanidin] | downregulated

System: FoxO3α protein expression in Caco-2 cells
Test: Immunoblotting of FoxO3α protein expression in Caco-2 cells
Assay type: cell-based, human
Conditions: Caco-2, 24 h, 50 and 100 µM
Protocol: as §1, §5, §3, §4, §6

SMILES | FoxO3α protein expression, in words
Oc1cc(O)c2cc(O)c(-c3ccc(O)c(O)c3)[o+]c2c1 [Compound 17, Cyanidin] | enhanced the protein expression of FOXO3 significantly

Target: T2, GST-tagged SIRT6
Test: not given
Set-up: method as in PMID 26607666
Conditions: cited from earlier work

SMILES | Modulation of SIRT6 deacetylation activity, in words
O=c1cc(-c2ccc(O)c(O)c2)oc2cc(O)cc(O)c12 [Compound 13, Luteolin] | increase SIRT6 deacetylation activity at high concentrations, while also inhibiting deacetylation activity at low concentrations
O=c1c(O)c(-c2ccc(O)c(O)c2)oc2cc(O)cc(O)c12 [Compound 15, Quercetin] | increase SIRT6 deacetylation activity at high concentrations, while also inhibiting deacetylation activity at low concentrations
